The results in this text go back to US8058447B2, “4-Chromenonyl-1,4-dihydropyridinecarbonitriles and the use thereof” (Bayer Pharma Aktiengesellschaft, priority 2005, dated 2011).

The experiment has as its target T1, human mineralocorticoid receptor (MR) (Homo sapiens, UniProt P08235).
T1 construct: expressed in transfected cells
T1 sequence (P08235 734-984 limits assumed): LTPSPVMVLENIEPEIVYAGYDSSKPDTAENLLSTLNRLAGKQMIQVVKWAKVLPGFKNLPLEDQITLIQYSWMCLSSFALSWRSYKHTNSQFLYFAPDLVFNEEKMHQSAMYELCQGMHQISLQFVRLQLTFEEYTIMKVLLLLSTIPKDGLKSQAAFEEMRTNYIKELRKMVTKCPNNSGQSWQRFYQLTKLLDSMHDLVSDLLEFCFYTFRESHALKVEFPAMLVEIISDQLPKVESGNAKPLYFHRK
Description: Cellular in vitro assay to determine the inhibitory MR activity (GAL4-MR chimera luciferase reporter in CHO K1 cells). The conditions noted are these: antagonism of aldosterone-stimulated luciferase in CHO K1 cells expressing GAL4-MR chimera. In kind it is cell-based. The source says: 1. Cellular In Vitro Assay to Determine the Inhibitory MR Activity and MR Selectivity Compared with Other Steroid Hormone Receptors
Antagonists of the human mineralocorticoid receptor (MR) are identified, and the activity of the compounds described herein is quantified with the aid of a recombinant cell line. The cell is originally derived from a hamster ovary epithelial cell (Chinese Hamster Ovary, CHO K1, ATCC: American Type Culture Collection, VA 20108, USA).
An established chimera system in which the ligand-binding domains of human steroid hormone receptors are fused to the DNA binding domain of the yeast transcription factor GAL4 is used in this CHO K1 cell line. The GAL4-steroid hormone receptor chimeras produced in this way are cotransfected and stably expressed with a reporter construct in the CHO cells.
To generate the GAL4-steroid hormone receptor chimeras, the GAL4 DNA binding domain (amino acids 1-147) from the vector pFC2-dbd (from Stratagene) is cloned with the PCR-amplified ligand-binding domains of the mineralocorticoid receptor (MR, amino acids 734-985), of the glucocorticoid receptor (GR, amino acids 443-777), of the progesterone receptor (PR, amino acids 680-933) and of the androgen receptor (AR, amino acids 667-919) into the vector pIRES2 (from Clontech). The reporter construct, which comprises five copies of the GAL4 binding site upstream of a thymidine kinase promoter, leads to expression of firefly luciferase (Photinus pyralis) after activation and binding of the GAL4-steroid hormone receptor chimeras by the respective specific agonists aldosterone (MR), dexamethasone (GR), progesterone (PR) and dihydrotestosterone (AR).
The MR, GR, PR and AR cells are plated out in medium (Optimem, 2.5% FCS, 2 mM glutamine, 10 mM HEPES) in 96- (or 384- or 1536-) well microtiter plates on the day before the assay and are kept in a cell incubator (96% humidity, 5% v/v CO2, 37° C.). On the day of the assay, the substances to be tested are taken up in the abovementioned medium and added to the cells. About 10 to 30 minutes after addition of the test substances, the respective specific agonists of the steroid hormone receptors are added. After a further incubation time of 5 to 6 hours, the luciferase activity is measured with the aid of a video camera. The measured relative light units as a function of the substance concentration result in a sigmoidal stimulation curve. The IC50 values are calculated with the aid of the GraphPad PRISM computer program (Version 3.02).
Background: Reporter assays use an easily measured gene product as a stand-in for the process of interest.
As for `CC1=C(C#N)C(c2cccc3c(=O)cc(C)oc23)C(C(=O)CC2CCCC2)=C(C)N1` (centres unmarked) [Example 41, 5-(Cyclopentylacetyl)-2,6-dimethyl-4-(2-methyl-4-oxo-4H-chromen-8-yl)-1,4-dihydropyridine-3-carbonitrile], the IC50 – broadly, the concentration needed to halve the response being measured – was 290 nM. With `CC1=C(C#N)C(c2ccc([N+](=O)[O-])c3c(=O)cc(C)oc23)C(C(=O)OC(C)C)=C(C)N1` (centres unmarked) [Example 32, Isopropyl 5-cyano-2,6-dimethyl-4-(2-methyl-5-nitro-4-oxo-4H-chromen-8-yl)-1,4-dihydropyridine-3-carboxylate] the figure was 105 nM. For the molecule `CC1=C(C#N)[C@@H](c2cc(F)c(F)c3c(=O)cc(C)oc23)C(C(=O)OC2CCC2)=C(C)N1` (single isomer, unassigned) [Example 18], the IC50 is 22 nM. This IC50 is about 4.8-fold lower than that of the molecule before. With `CC1=C(C#N)C(c2ccc(F)c3c(=O)cc(C)oc23)C(C(=O)CCC(C)C)=C(C)N1` (centres unmarked) [Example 14, 4-(5-Fluoro-2-methyl-4-oxo-4H-chromen-8-yl)-2,6-dimethyl-5-(4-methylpentanoyl)-1,4-dihydropyridine-3-carbonitrile] the figure was 195 nM; with `CC1=C(C#N)C(c2ccc(F)c3c(=O)cc(C)oc23)C(C(=O)CC2CCC2)=C(C)N1` (centres unmarked) [Example 13, 5-(Cyclobutylacetyl)-4-(5-fluoro-2-methyl-4-oxo-4H-chromen-8-yl)-2,6-dimethyl-1,4-dihydropyridine-3-carbonitrile], 127 nM. Then `CCOC(=O)C1=C(C)NC(C(F)(F)F)=C(C#N)[C@H]1c1cccc2c(=O)cc(C)oc12` (single isomer, unassigned) [Example 30], with 89 nM; and `CCOC(=O)C1=C(C)NC(C(F)(F)F)=C(C#N)C1c1cccc2c(=O)cc(C)oc12` (racemic) [Example 29, Ethyl 5-cyano-2-methyl-4-(2-methyl-4-oxo-4H-chromen-8-yl)-6-(trifluoromethyl)-1,4-dihydropyridine-3-carboxylate], with 193 nM; and `CC1=C(C#N)C(c2ccc(F)c3c(=O)cc(C)oc23)C(C(=O)CCC2CCC2)=C(C)N1` (centres unmarked) [Example 15, 5-(3-Cyclobutylpropanoyl)-4-(5-fluoro-2-methyl-4-oxo-4H-chromen-8-yl)-2,6-dimethyl-1,4-dihydropyridine-3-carbonitrile], with 93 nM.
